These results are taken from US20020026053A1, “Novel 3-(substituted) -2- indolinones compounds and use thereof as inhibitors of protein kinase activity” (priority 1997, published 2002).

The assay deals with T1, Met receptor (EGFR/Met chimeric cells, EMR) (Homo sapiens, UniProt P08581).
T1 construct: expressed in transfected cells; the other entry of the earlier key: EGFR (P00533, Epidermal growth factor receptor)
Kind of assay: Met Autophosphorylation Assay. The assay is classed as biochemical. In a few lines: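 Met phosphorylation was measured by capture ELISA. Lysates (90 μg/100 μl, HNTG plus 1 mM PMSF) from transiently transfected EGFR/Met chimera (EMR) cells were bound for 60 min at room temperature to wells holding rabbit anti-Met (C-28) on goat anti-rabbit coat. Phosphotyrosine was the read-out.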

T1 sequence (P08581 with tags, fused parts or gaps): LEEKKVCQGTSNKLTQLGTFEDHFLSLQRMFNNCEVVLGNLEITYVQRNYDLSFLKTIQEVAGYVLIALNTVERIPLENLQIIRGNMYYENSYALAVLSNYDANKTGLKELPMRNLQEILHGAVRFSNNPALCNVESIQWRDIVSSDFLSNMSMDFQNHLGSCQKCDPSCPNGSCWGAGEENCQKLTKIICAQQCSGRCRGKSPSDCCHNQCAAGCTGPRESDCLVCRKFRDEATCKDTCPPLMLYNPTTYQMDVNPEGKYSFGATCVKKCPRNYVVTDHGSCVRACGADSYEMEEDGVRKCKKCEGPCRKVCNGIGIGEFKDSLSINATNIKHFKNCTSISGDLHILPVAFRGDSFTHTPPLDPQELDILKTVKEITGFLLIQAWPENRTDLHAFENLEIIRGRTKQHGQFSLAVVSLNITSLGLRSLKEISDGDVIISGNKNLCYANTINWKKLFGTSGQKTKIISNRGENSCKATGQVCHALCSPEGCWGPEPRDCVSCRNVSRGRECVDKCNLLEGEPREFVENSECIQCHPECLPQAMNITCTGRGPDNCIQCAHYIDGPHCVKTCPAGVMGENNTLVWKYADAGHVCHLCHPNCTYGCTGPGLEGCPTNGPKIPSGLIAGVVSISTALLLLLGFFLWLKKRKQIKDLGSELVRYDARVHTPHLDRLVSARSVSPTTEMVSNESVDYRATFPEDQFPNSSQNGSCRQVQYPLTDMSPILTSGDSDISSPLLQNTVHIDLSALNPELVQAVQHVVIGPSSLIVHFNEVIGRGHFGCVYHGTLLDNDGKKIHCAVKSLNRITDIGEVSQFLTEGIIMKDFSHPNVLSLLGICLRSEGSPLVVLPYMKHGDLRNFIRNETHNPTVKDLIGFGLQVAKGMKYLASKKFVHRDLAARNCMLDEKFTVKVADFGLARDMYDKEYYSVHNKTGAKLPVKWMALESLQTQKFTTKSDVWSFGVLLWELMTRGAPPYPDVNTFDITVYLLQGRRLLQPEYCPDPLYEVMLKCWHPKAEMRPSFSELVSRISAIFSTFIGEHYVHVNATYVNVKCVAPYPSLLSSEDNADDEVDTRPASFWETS

For the compound `Cc1c(O)ccc(C=C2C(=O)Nc3c(Br)cc(Br)c(C)c32)c1O` [10718/H09], the “Met Kinase % Inhibition (P.130)” value is recorded as 73.6%.
Turning to `Cc1c(Br)cc(Br)c2c1C(=Cc1ccco1)C(=O)N2` [10718/H10], the “Met Kinase % Inhibition (P.130)” value turned out to be 19.9%.
For `Cc1c(Br)cc(Br)c2c1C(=Cc1ccc([N+](=O)[O-])o1)C(=O)N2` [10718/H11], the “Met Kinase % Inhibition (P.130)” value came out at 44.9%.
In the case of `CCOc1ccc(C=C2C(=O)Nc3c(Br)cc(Br)c(C)c32)cc1OC` [10719/H02], the “Met Kinase % Inhibition (P.130)” value was determined as 36.9%.
For `Cc1c(Br)cc(Br)c2c1C(=Cc1ccc(O)c(O)c1)C(=O)N2` [10719/H03], the “Met Kinase % Inhibition (P.130)” value worked out at 67.0%.
With `COc1ccc(C=C2C(=O)Nc3c(Br)cc(Br)c(C)c32)c(OC)c1` [10719/H04], the “Met Kinase % Inhibition (P.130)” value stood at 0.7%.
On to `CCc1c(C)[nH]c(C=C2C(=O)Nc3c(Br)cc(Br)c(C)c32)c1C` [10719/H05], for which the “Met Kinase % Inhibition (P.130)” value was 20.9%.
For the compound `COc1cc(OC)c(C=C2C(=O)Nc3c(Br)cc(Br)c(C)c32)c(OC)c1` [10719/H06], the “Met Kinase % Inhibition (P.130)” value stood at 1.3%.
In the case of `CCN(CC)c1ccc(C=C2C(=O)Nc3c(Br)cc(Br)c(C)c32)c(O)c1` [10734/H05], the “Met Kinase % Inhibition (P.130)” value was determined as 51.1%.
On to `Cc1c(Br)cc(Br)c2c1C(=Cc1ccc([N+](=O)[O-])cc1)C(=O)N2` [10734/H06], for which the “Met Kinase % Inhibition (P.130)” value came to 32.7%.
Then `Cc1c(Br)cc(Br)c2c1C(=Cc1cc(Br)cc(Br)c1O)C(=O)N2` [10734/H07], with 84.9%.
Consider `Cc1c(Br)cc(Br)c2c1C(=Cc1cccc(F)c1O)C(=O)N2` [10734/H08], for which the “Met Kinase % Inhibition (P.130)” value is given as 64.8%.
Then `Cc1c(Br)cc(Br)c2c1C(=Cc1ccc(O)c(Br)c1)C(=O)N2` [10734/H09], with 78.4%; and `Cc1c(Br)cc(Br)c2c1C(=Cc1ccc(C(C)(C)C)cc1)C(=O)N2` [10734/H10], with 23.5%.
With `Cc1c(Br)cc(Br)c2c1C(=Cc1ccc(Br)s1)C(=O)N2` [10734/H11], the “Met Kinase % Inhibition (P.130)” value was 28.7%.
In the case of `Cc1ccccc1C=C1C(=O)Nc2c(Br)cc(Br)cc21` [10735/A02], the “Met Kinase % Inhibition (P.130)” value came out at 26.9%.
In the case of `O=C1Nc2c(Br)cc(Br)cc2C1=Cc1ccc(F)c(F)c1` [10735/A03], the “Met Kinase % Inhibition (P.130)” value is reported as 53.0%.
In the case of `O=C1Nc2c(Br)cc(Br)cc2C1=Cc1cc(F)cc(F)c1` [10735/A04], the “Met Kinase % Inhibition (P.130)” value came to 48.0%.
As to `O=C1Nc2c(Br)cc(Br)cc2C1=Cc1cccc(C(F)(F)F)c1` [10735/A05], the “Met Kinase % Inhibition (P.130)” value is listed as 46.1%.
On to `O=C1Nc2c(Br)cc(Br)cc2C1=Cc1cc(C(F)(F)F)cc(C(F)(F)F)c1` [10735/A06], for which the “Met Kinase % Inhibition (P.130)” value is 58.9%.
Under `N#Cc1ccccc1C=C1C(=O)Nc2c(Br)cc(Br)cc21` [10735/A07] stands 61.9%; under `O=C1Nc2c(Br)cc(Br)cc2C1=Cc1c(F)cccc1F` [10735/A08], 50.8%.
Consider `O=C1Nc2c(Br)cc(Br)cc2C1=Cc1cccc2ccccc12` [10735/A09], for which the “Met Kinase % Inhibition (P.130)” value is listed as 19.2%.
As for `O=C1Nc2c(Br)cc(Br)cc2C1=Cc1ccc(Cl)cc1Cl` [10735/A10], the “Met Kinase % Inhibition (P.130)” value is reported as 41.4%.
For the compound `O=C1Nc2c(Br)cc(Br)cc2C1=Cc1ccc(-c2ccccc2)cc1` [10735/A11], the “Met Kinase % Inhibition (P.130)” value is 24.5%.
Regarding `Cc1ccccc1C=C1C(=O)Nc2ccc(I)cc21` [10735/B02], the “Met Kinase % Inhibition (P.130)” value was 72.4%.
As for `O=C1Nc2ccc(I)cc2C1=Cc1ccc(F)c(F)c1` [10735/B03], the “Met Kinase % Inhibition (P.130)” value is 73.3%.
Then `O=C1Nc2ccc(I)cc2C1=Cc1cc(F)cc(F)c1` [10735/B04], with 79.0%; and `O=C1Nc2ccc(I)cc2C1=Cc1cccc(C(F)(F)F)c1` [10735/B05], with 83.7%.
With `O=C1Nc2ccc(I)cc2C1=Cc1cc(C(F)(F)F)cc(C(F)(F)F)c1` [10735/B06], the “Met Kinase % Inhibition (P.130)” value is 82.7%.
For the compound `N#Cc1ccccc1C=C1C(=O)Nc2ccc(I)cc21` [10735/B07], the “Met Kinase % Inhibition (P.130)” value is 56.0%.
Under `O=C1Nc2ccc(I)cc2C1=Cc1c(F)cccc1F` [10735/B08] stands 53.4%; under `O=C1Nc2ccc(I)cc2C1=Cc1cccc2ccccc12` [10735/B09], 46.8%.
As for `O=C1Nc2ccc(I)cc2C1=Cc1ccc(Cl)cc1Cl` [10735/B10], the “Met Kinase % Inhibition (P.130)” value came to 73.3%.
As for `O=C1Nc2ccc(I)cc2C1=Cc1ccc(-c2ccccc2)cc1` [10735/B11], the “Met Kinase % Inhibition (P.130)” value is 69.0%.
With `Cc1ccccc1C=C1C(=O)Nc2ccc(Br)c(C)c21` [10735/C02], the “Met Kinase % Inhibition (P.130)” value stood at 27.7%.
Turning to `Cc1c(Br)ccc2c1C(=Cc1ccc(F)c(F)c1)C(=O)N2` [10735/C03], the “Met Kinase % Inhibition (P.130)” value was 66.2%.
In the case of `Cc1c(Br)ccc2c1C(=Cc1cc(F)cc(F)c1)C(=O)N2` [10735/C04], the “Met Kinase % Inhibition (P.130)” value is given as 75.8%.
Then `Cc1c(Br)ccc2c1C(=Cc1cccc(C(F)(F)F)c1)C(=O)N2` [10735/C05], with 59.4%; and `Cc1c(Br)ccc2c1C(=Cc1cc(C(F)(F)F)cc(C(F)(F)F)c1)C(=O)N2` [10735/C06], with 47.0%.
For `Cc1c(Br)ccc2c1C(=Cc1ccccc1C#N)C(=O)N2` [10735/C07], the “Met Kinase % Inhibition (P.130)” value is 49.1%.
Regarding `Cc1c(Br)ccc2c1C(=Cc1c(F)cccc1F)C(=O)N2` [10735/C08], the “Met Kinase % Inhibition (P.130)” value is listed as 49.8%.
For the compound `Cc1c(Br)ccc2c1C(=Cc1cccc3ccccc13)C(=O)N2` [10735/C09], the “Met Kinase % Inhibition (P.130)” value worked out at 24.1%.
Under `Cc1c(Br)ccc2c1C(=Cc1ccc(Cl)cc1Cl)C(=O)N2` [10735/C10] stands 37.8%; under `Cc1c(Br)ccc2c1C(=Cc1ccc(-c3ccccc3)cc1)C(=O)N2` [10735/C11], 14.1%.
Take `CNS(=O)(=O)c1ccc2c(c1)C(=Cc1ccccc1C)C(=O)N2` [10735/D02]: the “Met Kinase % Inhibition (P.130)” value was determined as 32.6%.
On to `CNS(=O)(=O)c1ccc2c(c1)C(=Cc1ccc(F)c(F)c1)C(=O)N2` [10735/D03], for which the “Met Kinase % Inhibition (P.130)” value is recorded as 41.2%.
Under `CNS(=O)(=O)c1ccc2c(c1)C(=Cc1cc(F)cc(F)c1)C(=O)N2` [10735/D04] stands 25.6%; under `CNS(=O)(=O)c1ccc2c(c1)C(=Cc1cccc(C(F)(F)F)c1)C(=O)N2` [10735/D05], 33.7%.
`CNS(=O)(=O)c1ccc2c(c1)C(=Cc1cc(C(F)(F)F)cc(C(F)(F)F)c1)C(=O)N2` [10735/D06]: the “Met Kinase % Inhibition (P.130)” value was 36.9%.
With `CNS(=O)(=O)c1ccc2c(c1)C(=Cc1ccccc1C#N)C(=O)N2` [10735/D07], the “Met Kinase % Inhibition (P.130)” value was found to be 33.7%.
Under `CNS(=O)(=O)c1ccc2c(c1)C(=Cc1c(F)cccc1F)C(=O)N2` [10735/D08] stands 25.6%; under `CNS(=O)(=O)c1ccc2c(c1)C(=Cc1cccc3ccccc13)C(=O)N2` [10735/D09], 23.0%; under `CNS(=O)(=O)c1ccc2c(c1)C(=Cc1ccc(Cl)cc1Cl)C(=O)N2` [10735/D10], 35.0%.
